Peptide text beside a SMILES is read from it. * marks the point of attachment. Cbz = O=C(OCc1ccccc1)*
Assays:
UBR2 = biological target: T1, UBR2 (Rattus norvegicus, UniProt A0A8I5YBG5); assay: UBR box domain binding strength by immunoprecipitation analysis, UBR2; format: cell-based; details: L6 cell line, compound 5 uM, 24 hours, immunoprecipitation and immunoblotting
T1 construct: endogenous in cells; host or cells: L6 rat muscle-derived cells
Experimental: (§1) To evaluate the binding strength of the compounds to UBR1, UBR2, UBR3 and UBR5 through the UBR box domain, a L6 cell line, which is a rat muscle-derived cell, was cultured using a DMEM medium containing 10% FBS and 1% streptomycin/penicillin in an incubator in which 5% carbon dioxide was maintained. In order to measure the UBR1 binding strength according to the treatment with a representative compound selected from the present compounds, cells were aliquoted into a 100 pi dish. The cells were additionally cultured for 24 hours so as to be completely attached to the surface of the plate. […] To extract proteins from the collected cells, 50 uL of a lysis buffer (20 mM Tris, pH 7.4, 150 mM NaCl, 1% Triton-X-100, 2 mM NaF, 2 mM EDTA, 2 mM b-glycerophosphate, 5 mM sodium orthovanadate, 1 mM PMSF, leupeptin, aprotenin) was injected into each sample, and the cells were lysed. Each sample was reacted with a UBR1 antibody for 16 hours based on the measured total protein concentration, and then reacted with Protein A/G beads for 3 hours. A sample buffer was added to the completely reacted sample and the resulting mixture was reacted at 100° C. for 5 minutes. After 20 uL was taken from the completely reacted sample and aliquoted into each well of an acrylamide gel, an immunoblotting method was performed, and the experimental results are illustrated in [FIG. 10] and [FIG. 11]. […]

UBR1 [1] = biological target: T2, UBR1 (Rattus norvegicus, UniProt A0A8I5ZK69); assay: Inhibition of muscle cell actin degradation by immunoblotting; format: cell-based; details: L6 cell line, compound 5 uM, 24 hours
T2 construct: endogenous in cells; host or cells: L6 rat muscle-derived cells
T2 sequence (A0A8I5ZK69 1-1749): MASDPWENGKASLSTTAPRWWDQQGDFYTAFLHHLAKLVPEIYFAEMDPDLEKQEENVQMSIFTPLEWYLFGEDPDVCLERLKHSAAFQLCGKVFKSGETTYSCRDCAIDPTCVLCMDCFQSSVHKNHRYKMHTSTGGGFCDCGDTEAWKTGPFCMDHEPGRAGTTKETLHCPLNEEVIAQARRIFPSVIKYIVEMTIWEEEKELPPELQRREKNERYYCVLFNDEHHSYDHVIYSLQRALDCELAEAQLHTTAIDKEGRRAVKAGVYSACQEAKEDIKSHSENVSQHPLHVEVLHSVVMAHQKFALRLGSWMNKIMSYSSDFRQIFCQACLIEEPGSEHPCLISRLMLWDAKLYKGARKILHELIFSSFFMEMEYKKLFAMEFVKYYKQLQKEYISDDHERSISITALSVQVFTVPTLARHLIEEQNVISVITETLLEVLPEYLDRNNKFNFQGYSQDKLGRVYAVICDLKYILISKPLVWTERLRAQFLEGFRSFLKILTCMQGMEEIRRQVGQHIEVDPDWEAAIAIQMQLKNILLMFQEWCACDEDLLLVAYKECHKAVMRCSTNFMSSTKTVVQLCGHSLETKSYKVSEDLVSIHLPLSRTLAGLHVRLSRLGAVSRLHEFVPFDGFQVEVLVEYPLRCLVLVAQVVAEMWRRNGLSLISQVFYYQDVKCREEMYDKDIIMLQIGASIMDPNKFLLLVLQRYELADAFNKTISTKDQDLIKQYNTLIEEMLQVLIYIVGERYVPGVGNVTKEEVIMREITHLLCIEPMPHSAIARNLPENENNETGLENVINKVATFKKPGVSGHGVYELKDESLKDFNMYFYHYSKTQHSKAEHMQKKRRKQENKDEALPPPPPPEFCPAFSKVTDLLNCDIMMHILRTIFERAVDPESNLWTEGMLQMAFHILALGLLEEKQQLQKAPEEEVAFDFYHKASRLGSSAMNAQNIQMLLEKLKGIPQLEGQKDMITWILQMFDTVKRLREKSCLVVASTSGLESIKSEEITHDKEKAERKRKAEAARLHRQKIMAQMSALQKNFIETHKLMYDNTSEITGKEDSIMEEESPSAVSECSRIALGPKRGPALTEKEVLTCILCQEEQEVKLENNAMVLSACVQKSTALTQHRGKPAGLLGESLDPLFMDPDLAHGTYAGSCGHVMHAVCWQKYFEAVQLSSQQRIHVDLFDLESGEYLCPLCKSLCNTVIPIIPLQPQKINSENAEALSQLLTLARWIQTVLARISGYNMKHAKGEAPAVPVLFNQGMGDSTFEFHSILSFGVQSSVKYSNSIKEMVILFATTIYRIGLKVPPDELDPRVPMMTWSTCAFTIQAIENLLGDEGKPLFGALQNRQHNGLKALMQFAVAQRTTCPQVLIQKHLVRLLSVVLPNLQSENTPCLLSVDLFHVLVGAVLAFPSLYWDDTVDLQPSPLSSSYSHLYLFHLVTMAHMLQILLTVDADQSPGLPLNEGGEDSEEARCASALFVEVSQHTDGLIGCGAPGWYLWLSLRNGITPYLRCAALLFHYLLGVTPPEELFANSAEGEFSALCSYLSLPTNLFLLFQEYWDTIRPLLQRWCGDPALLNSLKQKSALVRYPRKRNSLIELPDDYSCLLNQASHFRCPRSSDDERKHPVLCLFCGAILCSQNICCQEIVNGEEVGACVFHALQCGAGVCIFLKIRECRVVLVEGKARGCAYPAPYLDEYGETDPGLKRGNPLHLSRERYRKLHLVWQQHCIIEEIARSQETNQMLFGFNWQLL
Experimental: To evaluate the actin degradation of compounds in muscle cells, a L6 cell line, which is a rat muscle-derived cell, was cultured using a DMEM medium containing 10% FBS and 1% streptomycin/penicillin in an incubator in which 5% carbon dioxide was maintained. In order to measure the UBR1 binding strength according to the treatment with a representative compound selected from the present compounds, cells were aliquoted into a 12-well plate. The cells were additionally cultured for 24 hours so as to be completely attached to the surface of the plate. […] To extract proteins from the collected cells, 50 uL of a lysis buffer (20 mM Tris, pH 7.4, 150 mM NaCl, 1% Triton-X-100, 2 mM NaF, 2 mM EDTA, 2 mM b-glycerophosphate, 5 mM sodium orthovanadate, 1 mM PMSF, leupeptin, aprotenin) was injected into each sample, and the cells were lysed. A sample buffer was added to each sample based on the measured total protein concentration, and the mixture was reacted at 100° C. for 5 minutes. After 5 uL was taken from the completely reacted sample and aliquoted into each well of an acrylamide gel, an immunoblotting method was performed, and the experimental results were illustrated in [FIG. 4], [FIG. 5], [FIG. 6], [FIG. 7], [FIG. 8], and [FIG. 9]. For the immunoblotting method, a representative experiment was schematized from three or more independent experiments.

UBR3 = biological target: T3, UBR3 (Rattus norvegicus, UniProt D4A7F0); assay: UBR box domain binding strength by immunoprecipitation analysis, UBR3; format: cell-based; details: L6 cell line, compound 5 uM, 24 hours, immunoprecipitation and immunoblotting
T3 construct: endogenous in cells; host or cells: L6 rat muscle-derived cells
Experimental: as §1

UBR1 [2] = assay: Inhibition of R-nsP4 degradation by in vitro transcription/translation method; format: biochemical; details: compound 1 uM, 30° C. for 40 minutes, DHFR-Ub-R-nsP4 plasmid, immunoblotting
Experimental: A TnT® Quick Coupled Transcription/Translation System kit was used to confirm the R-nsP4 expression of the compounds. After a pre-mix was made using Transcend Biotin-Lysyl-tRNA, methionine, bestatin, a TnTquick Master mix and a DHFR-Ub-R-nsP4 plasmid, the pre-mix was mixed with a compound (1 uM). After each sample was reacted at 30° C. for 40 minutes, a 5×SDS loading dye was added thereto. After the resulting mixture was reacted at 95° C. for 2 minutes, 5 uL was taken and aliquoted into each well of an acrylamide gel, and then an immunoblotting method was performed, and the experimental results are illustrated in [FIG. 2]. For an in vitro transcription/translation method, a representative experiment was schematized from three or more independent experiments.
Referring to FIG. 2, it can be confirmed that the level of R-nsP4 is increased by Compound 2, Compound 3, Compound 7, Compound 12, Compound 14, and Compound 16 compared to the control. That is, it could be confirmed that in the case of treatment with the compound according to the present invention, the R-nsP4 level was increased by binding to UBR1.

UBR box of Human UBR1 = biological target: T4, UBR box of Human UBR1 (Homo sapiens, UniProt Q8IWV7); assay: UBR box domain binding by microscale thermophoresis (MST); details: RED-NHS labeled UBR1 UBR box protein (Gln97-Pro168), FIGS. 12 to 19
T4 construct: A Gln97-Pro168 portion corresponding to the UBR box of Human UBR1; made in house; host or cells: E. coli
T4 sequence (Q8IWV7 97-168): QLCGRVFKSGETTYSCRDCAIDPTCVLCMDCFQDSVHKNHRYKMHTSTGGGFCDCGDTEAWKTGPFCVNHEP
Experimental: A Gln97-Pro168 portion corresponding to the UBR box of Human UBR1 (UniProt ID: Q81WV7) was cloned into a modified expression vector, and then expressed in E. coli. After affinity chromatography was used, a tag was removed by a protease, and then Gly-His-Met was added to the N-terminal. After ion chromatography was performed, a final UBR box protein of a UBR1 was purified using gel filtration chromatography in a buffer composition of 10 mM NaCl, 20 mM Tris-HCl, 2 mM beta-mercaptoethanol, and pH 7.5.
A dye of the Monolith protein labeling kit RED-NHS 2nd generation (Cat #MO-L011) has an NHS-ester group that forms a covalent bond with primary amines (lysine residues). This dye is optimized for a Monolith-series device equipped with a RED detector. A purified UBR1 UBR box protein was labeled according to the presented protocol using this kit.
Thermophoresis refers to a phenomenon in which particles move due to a temperature gradient. Particles present in a high temperature region have greater kinetic energy than particles present in a low temperature region, and more frequently collide with surrounding particles with greater energy. As a result, particles move from the high temperature region to the low temperature region.
Thermophoresis of proteins is typically different from that of protein-ligand complexes. This is because the binding of the ligand changes its size, electric charge, and solvation energy. […] Therefore, the binding of the UBR1 UBR box protein and the ligand compound was measured using MST, and it was confirmed that the presented ligand binds to the UBR1 UBR box (see FIGS. 12 to 19).

UBR1 [3] = biological target: T2, UBR1; assay: Inhibition of intracellular RGS4 degradation by transfection (immunoblotting); format: cell-based; details: L6 cell line transfected with RGS4 plasmid, compound 5 uM, 24 hours
Experimental: A L6 cell line, which is a rat muscle-derived cell, was cultured using a DMEM medium containing 10% FBS and 1% streptomycin/penicillin in an incubator in which 5% carbon dioxide was maintained. In order to measure the UBR1 binding strength according to the treatment with a representative compound selected from the present compounds, cells were aliquoted into a 6-well plate. The cells were additionally cultured for 24 hours so as to be completely attached to the surface of the plate. Opti-MEM, Lipofectamine, and an RGS4plasmid was reacted for transfection. After the reaction was completed, the cells are treated such that DNA was expressed intracellularly. […] To extract proteins from the collected cells, 50 uL of a lysis buffer (20 mM Tris, pH 7.4, 150 mM NaCl, 1% Triton-X-100, 2 mM NaF, 2 mM EDTA, 2 mM b-glycerophosphate, 5 mM sodium orthovanadate, 1 mM PMSF, leupeptin, aprotenin) was injected into each sample, and the cells were lysed. A sample buffer was added to each sample based on the measured total protein concentration, and the mixture was reacted at 100° C. for 5 minutes. After 5 uL was taken from the completely reacted sample and aliquoted into each well of an acrylamide gel, an immunoblotting method was performed, and the experimental results are illustrated in [FIG. 3]. […]

UBR1 [4] = biological target: T2, UBR1; assay: UBR box domain binding strength by immunoprecipitation analysis, UBR1; format: cell-based; details: L6 cell line, 24 hours, immunoprecipitation and immunoblotting
Experimental: as §1

UBR5 = biological target: T5, UBR5 (Rattus norvegicus, UniProt Q62671); assay: UBR box domain binding strength by immunoprecipitation analysis, UBR5; format: cell-based; details: L6 cell line, compound 5 uM, 24 hours, immunoprecipitation and immunoblotting
T5 construct: endogenous in cells; host or cells: L6 rat muscle-derived cells
T5 sequence (Q62671 whole entry, the tested form may be a part): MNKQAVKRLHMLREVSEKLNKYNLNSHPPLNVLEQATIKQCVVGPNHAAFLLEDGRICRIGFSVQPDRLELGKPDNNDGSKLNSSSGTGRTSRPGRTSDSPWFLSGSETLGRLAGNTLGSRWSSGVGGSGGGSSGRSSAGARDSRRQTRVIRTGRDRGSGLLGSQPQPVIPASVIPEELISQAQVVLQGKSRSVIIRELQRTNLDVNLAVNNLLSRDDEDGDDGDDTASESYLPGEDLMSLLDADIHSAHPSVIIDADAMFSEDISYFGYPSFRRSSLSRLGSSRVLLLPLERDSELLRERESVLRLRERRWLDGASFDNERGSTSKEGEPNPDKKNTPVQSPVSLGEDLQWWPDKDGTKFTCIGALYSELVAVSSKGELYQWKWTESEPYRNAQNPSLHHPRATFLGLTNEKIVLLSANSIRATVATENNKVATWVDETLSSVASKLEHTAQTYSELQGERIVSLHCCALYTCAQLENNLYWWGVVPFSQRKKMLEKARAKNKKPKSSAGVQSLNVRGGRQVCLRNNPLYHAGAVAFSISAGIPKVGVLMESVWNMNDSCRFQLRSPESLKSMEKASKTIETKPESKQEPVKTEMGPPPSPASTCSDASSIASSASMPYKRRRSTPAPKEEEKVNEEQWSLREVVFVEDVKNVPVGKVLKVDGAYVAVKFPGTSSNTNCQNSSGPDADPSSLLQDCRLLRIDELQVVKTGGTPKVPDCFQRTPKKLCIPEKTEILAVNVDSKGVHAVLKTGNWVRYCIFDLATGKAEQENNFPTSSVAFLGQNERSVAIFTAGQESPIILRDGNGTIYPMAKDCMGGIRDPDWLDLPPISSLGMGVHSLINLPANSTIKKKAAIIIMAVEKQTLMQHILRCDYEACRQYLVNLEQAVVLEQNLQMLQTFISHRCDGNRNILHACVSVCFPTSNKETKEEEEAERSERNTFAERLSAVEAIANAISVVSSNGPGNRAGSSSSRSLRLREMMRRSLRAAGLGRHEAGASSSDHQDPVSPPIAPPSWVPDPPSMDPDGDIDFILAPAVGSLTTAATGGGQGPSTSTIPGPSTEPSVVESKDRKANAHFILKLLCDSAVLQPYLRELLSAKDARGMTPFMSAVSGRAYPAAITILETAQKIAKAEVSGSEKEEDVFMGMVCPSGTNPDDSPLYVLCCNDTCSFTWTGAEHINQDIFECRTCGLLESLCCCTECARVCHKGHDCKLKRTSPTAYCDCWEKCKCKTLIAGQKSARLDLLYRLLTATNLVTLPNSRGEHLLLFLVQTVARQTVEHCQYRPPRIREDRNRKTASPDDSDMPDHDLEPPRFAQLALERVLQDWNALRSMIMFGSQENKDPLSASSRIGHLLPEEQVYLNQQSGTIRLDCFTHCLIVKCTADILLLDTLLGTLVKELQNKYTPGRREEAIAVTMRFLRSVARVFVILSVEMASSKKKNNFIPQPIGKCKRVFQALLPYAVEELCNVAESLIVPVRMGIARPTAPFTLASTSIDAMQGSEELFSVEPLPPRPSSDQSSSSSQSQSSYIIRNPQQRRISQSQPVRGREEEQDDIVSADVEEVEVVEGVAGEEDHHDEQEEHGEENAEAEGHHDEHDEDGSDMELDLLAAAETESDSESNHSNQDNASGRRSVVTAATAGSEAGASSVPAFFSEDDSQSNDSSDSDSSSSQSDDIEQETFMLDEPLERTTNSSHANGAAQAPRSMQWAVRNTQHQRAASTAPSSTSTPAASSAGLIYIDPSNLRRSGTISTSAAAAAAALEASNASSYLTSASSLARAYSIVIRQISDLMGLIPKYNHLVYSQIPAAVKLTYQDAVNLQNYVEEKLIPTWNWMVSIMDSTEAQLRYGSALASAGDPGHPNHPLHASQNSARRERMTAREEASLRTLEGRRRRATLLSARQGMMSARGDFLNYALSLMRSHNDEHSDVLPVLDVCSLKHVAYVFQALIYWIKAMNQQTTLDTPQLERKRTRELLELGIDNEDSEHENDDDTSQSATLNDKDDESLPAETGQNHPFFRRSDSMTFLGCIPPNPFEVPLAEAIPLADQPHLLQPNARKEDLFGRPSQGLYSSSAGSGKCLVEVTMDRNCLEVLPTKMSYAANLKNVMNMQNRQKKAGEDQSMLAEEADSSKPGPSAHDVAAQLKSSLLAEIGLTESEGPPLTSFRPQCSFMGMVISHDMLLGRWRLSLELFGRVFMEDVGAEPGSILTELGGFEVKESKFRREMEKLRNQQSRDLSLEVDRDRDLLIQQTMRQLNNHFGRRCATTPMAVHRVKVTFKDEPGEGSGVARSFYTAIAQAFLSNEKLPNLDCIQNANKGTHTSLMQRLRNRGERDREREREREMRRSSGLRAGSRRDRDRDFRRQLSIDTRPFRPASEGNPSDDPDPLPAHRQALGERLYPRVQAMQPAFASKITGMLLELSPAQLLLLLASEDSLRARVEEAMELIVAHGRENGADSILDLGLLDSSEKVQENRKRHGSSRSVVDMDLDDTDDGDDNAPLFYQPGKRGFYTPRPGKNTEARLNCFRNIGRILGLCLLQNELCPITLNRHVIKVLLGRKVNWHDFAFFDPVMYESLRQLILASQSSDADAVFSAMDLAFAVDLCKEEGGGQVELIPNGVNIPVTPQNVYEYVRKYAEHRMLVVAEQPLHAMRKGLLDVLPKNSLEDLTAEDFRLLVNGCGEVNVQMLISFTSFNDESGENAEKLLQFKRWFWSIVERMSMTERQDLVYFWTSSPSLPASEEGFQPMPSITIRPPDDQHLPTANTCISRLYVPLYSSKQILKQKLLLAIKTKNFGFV
Experimental: as §1

L6 cell line = assay: Confirmation of whether muscle actin is Arg/N-degron pathway substrate (immunoblotting); format: cell-based, rat; details: MG132 10 uM, 24 hours
Experimental: A L6 cell line, which is a rat muscle-derived cell, was cultured using a DMEM medium containing 10% FBS and 1% streptomycin/penicillin in an incubator in which 5% carbon dioxide was maintained, and cells were aliquoted into a 12-well plate after the culture. The cells were additionally cultured for 24 hours so as to be completely attached to the surface of the plate. To confirm whether MG132 increased UBR1 binding, cells were collected after treatment with MG132 (10 uM) alone for 24 hours. To extract proteins from the collected cells, 50 uL of a lysis buffer (20 mM Tris, pH 7.4, 150 mM NaCl, 1% Triton-X-100, 2 mM NaF, 2 mM EDTA, 2 mM b-glycerophosphate, 5 mM sodium orthovanadate, 1 mM PMSF, leupeptin, aprotenin) was injected into each sample, and the cells were lysed. A sample buffer was added to each sample based on the measured total protein concentration, and the mixture was reacted at 100° C. for 5 minutes. After 5 uL was taken from the completely reacted sample and aliquoted into each well of an acrylamide gel, an immunoblotting method was performed, and the experimental results are illustrated in [FIG. 1]. For the immunoblotting method, a representative experiment was schematized from three or more independent experiments.

Nc1ccc(S(=O)(=O)NNC(=O)c2ccc(O)cc2)cc1 [Compound 2, 4-amino-N′-(4-hydroxybenzoyl)benzenesulfonohydrazide]
binding strength of UBR2 and ACTA1 (UBR2): reduced | level of ACTA1 compared to the control (UBR1 [1]): further increased | binding strength of UBR3 and ACTA1 (UBR3): reduced | level of R-nsP4 compared to the control (UBR1 [2]): increased | binding to UBR1 UBR box (MST) (UBR box of Human UBR1): binds | level of RGS4 compared to the control (UBR1 [3]): increased | binding strength of UBR1 and ACTA1 (UBR1 [4]; compound 5 uM): reduced | binding strength of UBR5 and ACTA1 (UBR5): reduced

Nc1ccc(S(=O)(=O)NNC(=O)c2ccc(O)cc2)cc1N1CCOCC1 [Compound 3, 4-amino-N′-(4-hydroxybenzoyl)-3-morpholinobenzenesulfonohydrazide]
level of ACTA1 compared to the control (UBR1 [1]): further increased | level of R-nsP4 compared to the control (UBR1 [2]): increased | level of RGS4 compared to the control (UBR1 [3]): increased

Nc1ccc(S(=O)(=O)NNC(=O)c2cccc(-c3ccccc3)c2)cc1 [Compound 7, N′-([1,1′-biphenyl]-3-carbonyl)-4-aminobenzenesulfonohydrazide]
level of ACTA1 compared to the control (UBR1 [1]): further increased | level of R-nsP4 compared to the control (UBR1 [2]): increased

Nc1ccc(S(=O)(=O)NCC(=O)c2ccc(O)cc2)cc1 [Compound 12, 4-amino-N-(2-(4-hydroxyphenyl)-2-oxoethyl)benzenesulfonamide]
level of ACTG2 compared to the control (UBR1 [1]): further increased | level of R-nsP4 compared to the control (UBR1 [2]): increased | binding to UBR1 UBR box (MST) (UBR box of Human UBR1): binds

N=C(N)c1ccc(S(=O)(=O)NNC(=O)c2ccc(O)cc2)cc1 [Compound 14, 4-((2-(4-hydroxybenzoyl)hydrazinyl)sulfonyl)benzimidamide]
level of ACTG2 compared to the control (UBR1 [1]): further increased | level of R-nsP4 compared to the control (UBR1 [2]): increased

Nc1ccc(S(=O)(=O)CNC(=O)c2ccc(O)cc2)cc1 [Compound 16, N-(((4-aminophenyl)sulfonyl)methyl)-4-hydroxybenzamide]
level of ACTA1 compared to the control (UBR1 [1]): further increased | level of R-nsP4 compared to the control (UBR1 [2]): increased

CC(C)C[C@@H](C=O)NC(=O)[C@H](CC(C)C)NC(=O)[C@H](CC(C)C)NC(=O)OCc1ccccc1 [MG132] (Cbz-Leu-Leu-Leu-aldehyde)
level of ACTA1 compared to a control (L6 cell line): increased | level of ACTC1 compared to a control (L6 cell line): increased | level of ACTG2 compared to a control (L6 cell line): increased | binding strength between UBR1 and a substrate ACTA1 (UBR1 [4]; MG132 10 uM as negative control): maintained

— patent US12559455B2, “Compound as a UBR box domain ligand” (AUTOTAC INC., priority 2020, dated 2026)
